Measurements: paper PMC10945555, “Improving Activity of New Arylurea Agents against Multidrug-Resistant and Biofilm-Producing Staphylococcus epidermidis” (ACS Medicinal Chemistry Letters, 2024)
≈ marks a conversion by molar mass, not a printed value. Read-outs that look alike come from different tables or passages of the source.

Legend:
[1] = tested on: clinical MDR Staphylococcus epidermidis isolates; test: MIC, broth microdilution, 81 clinical MDR strains; type: cell-based
In short: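 MICs were determined by twofold broth microdilution in cation-adjusted Mueller-Hinton II broth per EUCAST, over 50–0.1 µg/mL, in duplicate. Compounds were tested as free bases dissolved in DMSO; MIC50 and MIC90 were derived across the 81 clinical MDR S. epidermidis strains.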

horse red blood cells = test: Hemolytic activity assay
Description: 2.3.3 Hemolytic activity assay
The hemolytic properties of tested compound were evaluated according to previously reported procedure.6 Defibrinated horse red blood cells purchased from Thermo Fisher Scientific (Germany) were washed with PBS (3000 rpm, 10 min at 4 °C) for three times followed by PBS dilution to obtain a 8% suspension. Then, 100 μL of the resulting suspensions […]
were treated with 100 μL of tested compound at the final concentration of 200 μM, and incubated at 37 °C for 1 h. Triton X-100 (2%) and PBS were used as positive and negative controls, respectively. After centrifugation at 3000 rpm for 3 min, 100 μL of the supernatants were transferred to a 96 well microtiter plate and the hemoglobin release was determined in a SpectraMax iD3 reader (Molecular Devices) by absorption at 540 nm. […]

O=C(Nc1cccc(Cl)c1)NC1CCN(CCC(Oc2ccc(C(F)(F)F)cc2)c2cccs2)CC1 (stereo not shown) [Compound 25]
MIC ([1]; Staphylococcus epidermidis, clinical strain 42 (Table S5), read-out: MIC): 0.8 µg/mL (≈ 1.49 µM)
MIC ([1]; Staphylococcus epidermidis, clinical strain 43 (Table S2), read-out: MIC): 1.6 µg/mL (≈ 2.97 µM)
MIC ([1]; Staphylococcus epidermidis, clinical strain 43 (Table S5), read-out: MIC): 1.6 µg/mL (≈ 2.97 µM)
MIC ([1]; Staphylococcus epidermidis, clinical strain 44 (Table S2), read-out: MIC): 1.6 µg/mL (≈ 2.97 µM)
MIC ([1]; Staphylococcus epidermidis, clinical strain 44 (Table S5), read-out: MIC): 1.6 µg/mL (≈ 2.97 µM)
MIC ([1]; Staphylococcus epidermidis, clinical strain 45 (Table S2), read-out: MIC): 1.6 µg/mL (≈ 2.97 µM)
MIC ([1]; Staphylococcus epidermidis, clinical strain 45 (Table S5), read-out: MIC): 1.6 µg/mL (≈ 2.97 µM)
MIC ([1]; Staphylococcus epidermidis, clinical strain 46 (Table S2), read-out: MIC): 1.6 µg/mL (≈ 2.97 µM)
MIC ([1]; Staphylococcus epidermidis, clinical strain 46 (Table S5), read-out: MIC): 0.8 µg/mL (≈ 1.49 µM)
MIC ([1]; Staphylococcus epidermidis, clinical strain 47 (Table S2), read-out: MIC): 1.6 µg/mL (≈ 2.97 µM)
MIC ([1]; Staphylococcus epidermidis, clinical strain 47 (Table S5), read-out: MIC): 1.6 µg/mL (≈ 2.97 µM)
MIC ([1]; Staphylococcus epidermidis, clinical strain 48 (Table S2), read-out: MIC): 1.6 µg/mL (≈ 2.97 µM)
MIC ([1]; Staphylococcus epidermidis, clinical strain 48 (Table S5), read-out: MIC): 1.6 µg/mL (≈ 2.97 µM)
MIC ([1]; Staphylococcus epidermidis, clinical strain 49 (Table S2), read-out: MIC): 0.1 µg/mL (≈ 0.186 µM)
MIC ([1]; Staphylococcus epidermidis, clinical strain 49 (Table S5), read-out: MIC): 0.1 µg/mL (≈ 0.186 µM)
MIC ([1]; Staphylococcus epidermidis, clinical strain 50 (Table S2), read-out: MIC): 3.12 µg/mL (≈ 5.81 µM)
MIC ([1]; Staphylococcus epidermidis, clinical strain 50 (Table S5), read-out: MIC): 3.12 µg/mL (≈ 5.81 µM)
MIC ([1]; Staphylococcus epidermidis, clinical strain 51 (Table S2), read-out: MIC): 3.12 µg/mL (≈ 5.81 µM)
MIC ([1]; Staphylococcus epidermidis, clinical strain 51 (Table S5), read-out: MIC): 3.12 µg/mL (≈ 5.81 µM)
MIC ([1]; Staphylococcus epidermidis, clinical strain 52 (Table S2), read-out: MIC): 3.12 µg/mL (≈ 5.81 µM)
MIC ([1]; Staphylococcus epidermidis, clinical strain 52 (Table S5), read-out: MIC): 3.12 µg/mL (≈ 5.81 µM)
MIC ([1]; Staphylococcus epidermidis, clinical strain 53 (Table S2), read-out: MIC): 3.12 µg/mL (≈ 5.81 µM)
MIC ([1]; Staphylococcus epidermidis, clinical strain 53 (Table S5), read-out: MIC): 3.12 µg/mL (≈ 5.81 µM)
MIC ([1]; Staphylococcus epidermidis, clinical strain 54 (Table S2), read-out: MIC): 0.8 µg/mL (≈ 1.49 µM)
MIC ([1]; Staphylococcus epidermidis, clinical strain 54 (Table S5), read-out: MIC): 0.8 µg/mL (≈ 1.49 µM)
MIC ([1]; Staphylococcus epidermidis, clinical strain 55 (Table S2), read-out: MIC): 3.12 µg/mL (≈ 5.81 µM)
MIC ([1]; Staphylococcus epidermidis, clinical strain 55 (Table S5), read-out: MIC): 3.12 µg/mL (≈ 5.81 µM)
MIC ([1]; Staphylococcus epidermidis, clinical strain 56 (Table S2), read-out: MIC): 1.6 µg/mL (≈ 2.97 µM)
MIC ([1]; Staphylococcus epidermidis, clinical strain 56 (Table S5), read-out: MIC): 1.6 µg/mL (≈ 2.97 µM)
MIC ([1]; Staphylococcus epidermidis, clinical strain 57 (Table S2), read-out: MIC): 3.12 µg/mL (≈ 5.81 µM)
MIC ([1]; Staphylococcus epidermidis, clinical strain 57 (Table S5), read-out: MIC): 3.12 µg/mL (≈ 5.81 µM)
MIC ([1]; Staphylococcus epidermidis, clinical strain 58 (Table S2), read-out: MIC): 0.8 µg/mL (≈ 1.49 µM)
MIC ([1]; Staphylococcus epidermidis, clinical strain 58 (Table S5), read-out: MIC): 0.8 µg/mL (≈ 1.49 µM)
MIC ([1]; Staphylococcus epidermidis, clinical strain 59 (Table S2), read-out: MIC): 3.12 µg/mL (≈ 5.81 µM)
MIC ([1]; Staphylococcus epidermidis, clinical strain 59 (Table S5), read-out: MIC): 3.12 µg/mL (≈ 5.81 µM)
MIC ([1]; Staphylococcus epidermidis, clinical strain 60 (Table S2), read-out: MIC): 3.12 µg/mL (≈ 5.81 µM)
MIC ([1]; Staphylococcus epidermidis, clinical strain 60 (Table S5), read-out: MIC): 3.12 µg/mL (≈ 5.81 µM)
MIC ([1]; Staphylococcus epidermidis, clinical strain 61 (Table S2), read-out: MIC): 1.6 µg/mL (≈ 2.97 µM)
MIC ([1]; Staphylococcus epidermidis, clinical strain 61 (Table S5), read-out: MIC): 1.6 µg/mL (≈ 2.97 µM)
MIC ([1]; Staphylococcus epidermidis, clinical strain 62 (Table S2), read-out: MIC): 1.6 µg/mL (≈ 2.97 µM)
MIC ([1]; Staphylococcus epidermidis, clinical strain 62 (Table S5), read-out: MIC): 1.6 µg/mL (≈ 2.97 µM)
MIC ([1]; Staphylococcus epidermidis, clinical strain 63 (Table S2), read-out: MIC): 1.6 µg/mL (≈ 2.97 µM)
MIC ([1]; Staphylococcus epidermidis, clinical strain 63 (Table S5), read-out: MIC): 1.6 µg/mL (≈ 2.97 µM)
MIC ([1]; Staphylococcus epidermidis, clinical strain 64 (Table S2), read-out: MIC): 3.12 µg/mL (≈ 5.81 µM)
MIC ([1]; Staphylococcus epidermidis, clinical strain 64 (Table S5), read-out: MIC): 3.12 µg/mL (≈ 5.81 µM)
MIC ([1]; Staphylococcus epidermidis, clinical strain 65 (Table S2), read-out: MIC): 3.12 µg/mL (≈ 5.81 µM)
MIC ([1]; Staphylococcus epidermidis, clinical strain 65 (Table S5), read-out: MIC): 3.12 µg/mL (≈ 5.81 µM)
MIC ([1]; Staphylococcus epidermidis, clinical strain 66 (Table S2), read-out: MIC): 1.6 µg/mL (≈ 2.97 µM)
MIC ([1]; Staphylococcus epidermidis, clinical strain 66 (Table S5), read-out: MIC): 1.6 µg/mL (≈ 2.97 µM)
MIC ([1]; Staphylococcus epidermidis, clinical strain 67 (Table S2), read-out: MIC): 3.12 µg/mL (≈ 5.81 µM)
MIC ([1]; Staphylococcus epidermidis, clinical strain 67 (Table S5), read-out: MIC): 3.12 µg/mL (≈ 5.81 µM)
MIC ([1]; Staphylococcus epidermidis, clinical strain 68 (Table S2), read-out: MIC): 3.12 µg/mL (≈ 5.81 µM)
MIC ([1]; Staphylococcus epidermidis, clinical strain 68 (Table S5), read-out: MIC): 3.12 µg/mL (≈ 5.81 µM)
MIC ([1]; Staphylococcus epidermidis, clinical strain 69 (Table S2), read-out: MIC): 1.6 µg/mL (≈ 2.97 µM)
MIC ([1]; Staphylococcus epidermidis, clinical strain 69 (Table S5), read-out: MIC): 1.6 µg/mL (≈ 2.97 µM)
MIC ([1]; Staphylococcus epidermidis, clinical strain 70 (Table S2), read-out: MIC): 3.12 µg/mL (≈ 5.81 µM)
MIC ([1]; Staphylococcus epidermidis, clinical strain 70 (Table S5), read-out: MIC): 3.12 µg/mL (≈ 5.81 µM)
MIC ([1]; Staphylococcus epidermidis, clinical strain 71 (Table S2), read-out: MIC): 1.6 µg/mL (≈ 2.97 µM)
MIC ([1]; Staphylococcus epidermidis, clinical strain 71 (Table S5), read-out: MIC): 1.6 µg/mL (≈ 2.97 µM)
MIC ([1]; Staphylococcus epidermidis, clinical strain 72 (Table S2), read-out: MIC): 3.12 µg/mL (≈ 5.81 µM)
MIC ([1]; Staphylococcus epidermidis, clinical strain 72 (Table S5), read-out: MIC): 3.12 µg/mL (≈ 5.81 µM)
MIC ([1]; Staphylococcus epidermidis, clinical strain 73 (Table S2), read-out: MIC): 0.4 µg/mL (≈ 0.743 µM)
MIC ([1]; Staphylococcus epidermidis, clinical strain 73 (Table S5), read-out: MIC): 0.4 µg/mL (≈ 0.743 µM)
MIC ([1]; Staphylococcus epidermidis, clinical strain 74 (Table S2), read-out: MIC): 3.12 µg/mL (≈ 5.81 µM)
MIC ([1]; Staphylococcus epidermidis, clinical strain 74 (Table S5), read-out: MIC): 3.12 µg/mL (≈ 5.81 µM)
MIC ([1]; Staphylococcus epidermidis, clinical strain 75 (Table S2), read-out: MIC): 3.12 µg/mL (≈ 5.81 µM)
MIC ([1]; Staphylococcus epidermidis, clinical strain 75 (Table S5), read-out: MIC): 3.12 µg/mL (≈ 5.81 µM)
MIC ([1]; Staphylococcus epidermidis, clinical strain 76 (Table S2), read-out: MIC): 1.6 µg/mL (≈ 2.97 µM)
MIC ([1]; Staphylococcus epidermidis, clinical strain 76 (Table S5), read-out: MIC): 1.6 µg/mL (≈ 2.97 µM)
MIC ([1]; Staphylococcus epidermidis, clinical strain 77 (Table S2), read-out: MIC): 3.12 µg/mL (≈ 5.81 µM)
MIC ([1]; Staphylococcus epidermidis, clinical strain 77 (Table S5), read-out: MIC): 3.12 µg/mL (≈ 5.81 µM)
MIC ([1]; Staphylococcus epidermidis, clinical strain 78 (Table S2), read-out: MIC): 1.6 µg/mL (≈ 2.97 µM)
MIC ([1]; Staphylococcus epidermidis, clinical strain 78 (Table S5), read-out: MIC): 1.6 µg/mL (≈ 2.97 µM)
MIC ([1]; Staphylococcus epidermidis, clinical strain 79 (Table S2), read-out: MIC): 0.4 µg/mL (≈ 0.743 µM)
MIC ([1]; Staphylococcus epidermidis, clinical strain 79 (Table S5), read-out: MIC): 0.4 µg/mL (≈ 0.743 µM)
MIC ([1]; Staphylococcus epidermidis, clinical strain 80 (Table S2), read-out: MIC): 3.12 µg/mL (≈ 5.81 µM)
MIC ([1]; Staphylococcus epidermidis, clinical strain 80 (Table S5), read-out: MIC): 3.12 µg/mL (≈ 5.81 µM)
MIC ([1]; Staphylococcus epidermidis, clinical strain 81 (Table S2), read-out: MIC): 0.2 µg/mL (≈ 0.372 µM)
MIC ([1]; Staphylococcus epidermidis, clinical strain 81 (Table S5), read-out: MIC): 0.2 µg/mL (≈ 0.372 µM)
MIC ([1]; Staphylococcus epidermidis, mean of MIC values against clinical MDR-SE isolates, read-out: mean MIC): 1.76 µg/mL (≈ 3.27 µM)
MIC50 ([1]; Staphylococcus epidermidis, 81 clinical strains, concentration inhibiting growth of 50% clinical isolates): 1.6 µg/mL (≈ 2.97 µM)
MIC90 ([1]; Staphylococcus epidermidis, 81 clinical strains, concentration inhibiting growth of 90% of clinical isolates): 3.12 µg/mL (≈ 5.81 µM)
category according to EUCAST clinical breakpoints for linezolid ([1]; all reference and clinical MDR S. epidermidis strains): within the susceptible category
%hem (hemolytic activity) (horse red blood cells; 200 μM, 1 h, n = 3): 0.54%
lysis of erythrocytes (horse red blood cells; concentrations up to 200 μM): None of them caused lysis of erythrocytes
